Measurements taken from US20030054348A1, “Methods of identifying the activity of gene products” (priority 2000, published 2003).

Each substance was assayed on 5′ UTR of HCV mRNA (assay: Phage panning and phage Elisa on biotinylated RNA target). Conditions: phage clones; positive if A405 >2-fold over background.
Format: binding
Description: Surrogate peptides were obtained by panning a portion of the 5′ UTR of HCV mRNA using both the 20 mer and 40 mer random libraries. All solutions and surfaces were pretreated with DEPC or RNaseZap (Ambion, Inc.), respectively, to eliminate RNase contamination that may compromise the integrity of the RNA. Biotinylated—RNA target was diluted to 1 mg/ml in binding buffer (PBS containing 1 mM MgCl2), denatured at 65° C. for 5 min and reannealed by slow cooling to room temperature to allow for appropriate refolding. The synthetic biotinylated-RNA target had the following sequence, 5′-biotin′AA UUGCCAGGACGACCGGGUCCUUUCUUGGAU CM CCC GCU CM UGC CUG GAG AUU-3′. Reannealed RNAs were stored in small aliquots (10-25 μl/tube) at −20° C. Microtiter wells were treated with RNaseZap (Ambion, Inc.) before use. One hundred microliters of RNA solution diluted to 2.5 ng/μl was added to an appropriate number of wells in a 96-well microtiter plate precoated with Streptavidin (Pierce) and incubated for 1 hr at room temperature. Unbound streptavidin was then blocked with 50 μl of 2 mM biotin at room temperature for 1 hr. Four wells were used for each round of panning and 100 μl phage was added to each well. Pahge were precipitated with RNase-free 6% PEG 8000+0.3 M NaCl, washed with the same solution once and resuspended in RNase-free PBS+1 mM MgCl2+Superasin (RNase inhibitor from Ambion, Inc.). For the first round, the input phage titer was 1×10^13 cfu/ml. For rounds 2 and 3, the input phage titer was approximately 10^11 cfu/ml. Phage were allowed to bind for two to three hours at room temperature. The wells were then quickly washed 13 times with 400 μl/well of PBS. Bound phage were eluted by incubation with 150 μl/well of 50 mM glycine-HCl, pH 2.2+0.1% BSA for 5 min. The resulting solution was then neutralized with Tris-HCl, pH 8.0. Log phase TG1 cells were infected with the eluted phage by incubation at 37° C. for 1 hr. Helper phage (M13KO7) was then added (multiplicity of infection(MOI)=15) and cells incubated in the presence of 50 μg/ml ampicillin and 2% glucose for 1 hr at 37° C. with shaking at 250 rpm. Following infection, cells were pelleted, resuspended in the initial culture volume of 2×YT containing 50 μg/ml ampicillin and 50 μg/ml Kanamycin and grown overnight at 37° C. with shaking at 225 rpm. Cells from the overnight culture were pelleted and supernatant containing phage was recovered. Phage was precipitated with 6% PEG 8000, 300 mM NaCl and chilled on ice for 1 hr. […]
For Elisa analysis of individual clones, colonies were picked and phage prepared as described above using helper phage, M13KO7. […] Plates were analyzed at 405 nm using a SpectraMax 340 plate reader (Molecular Devices) and SoftMax Pro software. […]
With FTTPRHLSGRTVQMMRDSTS [HCV-3-C3] the “Binding to HCV mRNA target” value was “binders”. “LLVTGQFP--SQLLLGGAVCGP--STPRLRTGLCRLSGT (LLVTGQFPSQLLLGGAVCGPSTPRLRTGLCRLSGT) [HCV-3-F5]” was tested, and the “Binding to HCV mRNA target” value was “binders”. “RRTCGDPAAMLERLSCRAGDYRGASHTGRLLNLRGMHQYP [HCV-3-H8]” was tested, and the “Binding to HCV mRNA target” value was “binders”. With TSGESSGDRTRRVLTSSSARTILPN [HCV-NG-D9] the “Binding to HCV mRNA target” value was “binders”.
